Data set [1] concerns the target T1, CD45 (Homo sapiens, UniProt P08575).
T1 construct: incubating the cytosolic portion of CD45 with the compounds and p-nitrophenyl phosphate (pNPP); purchased BIOMOL (Plymouth Meeting, Pa.)
T1 sequence (P08575 599-1306 limits assumed): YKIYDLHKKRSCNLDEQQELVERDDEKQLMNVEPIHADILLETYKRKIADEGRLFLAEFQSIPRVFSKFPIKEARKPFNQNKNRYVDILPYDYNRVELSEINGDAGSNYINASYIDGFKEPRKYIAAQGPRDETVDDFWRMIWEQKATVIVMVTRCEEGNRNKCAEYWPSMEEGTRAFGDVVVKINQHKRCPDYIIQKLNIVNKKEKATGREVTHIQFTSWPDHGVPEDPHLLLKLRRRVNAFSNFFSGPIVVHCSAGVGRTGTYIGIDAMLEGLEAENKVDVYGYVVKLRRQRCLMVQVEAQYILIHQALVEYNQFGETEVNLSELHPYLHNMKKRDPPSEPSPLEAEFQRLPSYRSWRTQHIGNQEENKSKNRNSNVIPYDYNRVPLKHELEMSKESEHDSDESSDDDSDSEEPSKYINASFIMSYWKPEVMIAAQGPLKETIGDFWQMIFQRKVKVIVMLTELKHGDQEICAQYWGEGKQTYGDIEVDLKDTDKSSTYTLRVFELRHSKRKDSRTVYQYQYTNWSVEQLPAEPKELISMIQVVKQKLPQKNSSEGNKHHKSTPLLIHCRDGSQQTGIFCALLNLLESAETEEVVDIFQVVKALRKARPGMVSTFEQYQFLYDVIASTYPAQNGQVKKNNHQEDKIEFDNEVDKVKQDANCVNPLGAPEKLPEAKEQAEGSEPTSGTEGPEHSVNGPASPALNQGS
Put plainly: Phosphatase assay using lck 10-mer as substrate. In kind it is biochemical. Put shortly: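 Enzyme incubated with lck phosphopeptide TEGQpYQPQP for 1.5 h at room temperature in 25 mM HEPES pH 7.2, 5 mM DTT, 10 μg/mL BSA, 5% DMSO final. Compounds tested from 30 to 0.01 μM. Released phosphate detected with malachite-type Green Reagent, absorbance at 620 nm after 30 min.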

A short description of data set [2]: in vitro. Conditions: human.
Description: (§1) Calcein-AM (Molecular Probes. Eugene, Oreg.) uptake, as a quantitative measure of cell viability, was used to evaluate the toxic effect of compounds on T cells.
(§2) The T-cell lymphoblasts were purified by separation over Lymphoprep, plated at 2×10^5/well in a round bottom 96-well plate containing RPMI with compound and incubated overnight at 37° C. in an incubator containing 5% CO2. The dilution scheme and culture media were the same as those used in the T-cell proliferation assay. After the incubation period, cells were washed with Dulbecco's phosphate-buffered saline (D-PBS) and incubated with 1 μM Calcein-AM for 30-45 mim in D-PBS as described in the technical sheet provided with The LIVE/DEAD Viability/Cytotoxicity Kit from Molecular Probes.
Data set [3] deals with T1, CD45. Put plainly: Phosphatase assay using pNPP as substrate. In kind it is biochemical. Here is the method:
Phosphatase assay using pNPP as substrate:
CD45 enzyme was obtained from BIOMOL (Plymouth Meeting, Pa.). Phosphatase activity was assayed in a buffer containing final concentrations of 25 mM imidazole at pH 7.0, 50 mM NaCl, 2.5 mM ethylenediaminetetraacetic acid (“EDTA”), 5 mM dithiothreitol (“DTT”) and 10 μg/mL bovine serum albumin (“BSA”) using pNPP as a substrate.

The nature of data set [4]: Cytotoxicity assay (Calcein-AM uptake). Conditions: human, PHA-expanded T-cell lymphoblasts from PBMC.
Description: as §1, §2
Data set [5] deals with T cells (PBMC). The experiment in a line: cells. Conditions: human PBMC, OKT3 30 ng/mL, [3H]thymidine; read-out: T cell prolif. IC50. Type of data set: cell-based, human.
Setting [6] is: CD45 phosphatase, lck carboxy-terminal peptide TEGQpYQPQP substrate, pH 7.2, read-out: Ick IC50.
Setting [7] is: CD45 phosphatase, pNPP substrate, pH 7.0, read-out: pNPP IC50.

Where a SMILES comes first, the peptide text is derived from it. The star is where a group is joined. Phenanthrenequinone2carbonyl = O=C1C(=O)c2cc(C(=O)*)ccc2-c2ccccc21; 3Phenanthroyl(9,10-dioxo) = O=C1C(=O)c2ccc(C(=O)*)cc2-c2ccccc21 A value given as a limit tells only on which side of the number the result lay.

As usually defined, the IC50 is the concentration that inhibits the measured activity by half.

Take `O=C(O)CC[C@H](NC(=O)[C@@H]1CCCN1C(=O)[C@H](CCC(=O)O)NC(=O)CNC(=O)c1ccc2c(c1)C(=O)C(=O)c1ccccc1-2)C(=O)NCC(=O)O` [Example 43] (Phenanthrenequinone2carbonyl-GEPEG-OH): the IC50 in data set [1] is 3800 nM; in data set [3] (pH 7, read-out: pNPP IC50) it was 1900 nM. Besides, the CC50 in data set [2] was more than 30000 nM.
On to `N=C(N)NCCC[C@H](NC(=O)[C@@H]1CCCN1C(=O)[C@H](CCCNC(=N)N)NC(=O)CNC(=O)c1ccc2c(c1)C(=O)C(=O)c1ccccc1-2)C(=O)NCC(=O)O` [Example 55] (Phenanthrenequinone2carbonyl-GRPRG-OH), for which the concentration for half-maximal inhibition (IC50) in data set [1] was determined as 4700 nM; in data set [3] (pH 7, read-out: pNPP IC50) it was 1400 nM. Moreover, the CC50 in data set [2] was more than 30000 nM.
For the compound `O=C(O)CC[C@H](NC(=O)c1ccc2c(c1)C(=O)C(=O)c1ccccc1-2)C(=O)NCC(=O)N1CCC[C@H]1C(=O)N[C@@H](CCC(=O)O)C(=O)NCC(=O)O` [Example 41] (Phenanthrenequinone2carbonyl-EGPEG-OH), the IC50 in data set [1] is 3500 nM; in data set [3] (pH 7, read-out: pNPP IC50), 1400 nM. Further, the CC50 in data set [2] is more than 30000 nM.
With `NC(=O)CC[C@H](NC(=O)CNC(=O)c1ccc2c(c1)-c1ccccc1C(=O)C2=O)C(=O)NCC(=O)N[C@@H](CCC(=O)O)C(=O)N1CCC[C@H]1C(=O)O` [Example 35] ({3Phenanthroyl(9,10-dioxo)}-GQGEP-OH), the half-inhibitory concentration (IC50) in data set [1] worked out at 1400 nM; in data set [3] (pH 7, read-out: pNPP IC50), 900 nM. Moreover, the CC50 in data set [2] is more than 30000 nM.
As for `N=C(N)NCCC[C@H](NC(=O)c1ccc2c(c1)C(=O)C(=O)c1ccccc1-2)C(=O)NCC(=O)N1CCC[C@H]1C(=O)N[C@@H](CCC(=O)O)C(=O)NCC(=O)O` [Example 42] (Phenanthrenequinone2carbonyl-RGPEG-OH), the IC50 in data set [1] was 3500 nM; in data set [3] (pH 7, read-out: pNPP IC50), 900 nM. This compound came in with a CC50 in data set [2] of more than 30000 nM.
Take `NC(=O)CC[C@H](NC(=O)CNC(=O)c1ccc2c(c1)-c1ccccc1C(=O)C2=O)C(=O)N1CCC[C@H]1C(=O)N[C@@H](CCC(=O)O)C(=O)NCC(=O)O` [Example 39] ({3Phenanthroyl(9,10-dioxo)}-GQPEG-OH): the figures for the half-inhibitory concentration (IC50) in data set [1] (setting [6]) and in data set [3] were 2300 nM and 700 nM, respectively. In addition, the CC50 in data set [2] was more than 30000 nM.
Take `NC(=O)CC[C@H](NC(=O)c1ccc2c(c1)-c1ccccc1C(=O)C2=O)C(=O)N[C@@H](CCC(N)=O)C(=O)N1CCC[C@H]1C(=O)N[C@@H](CCC(N)=O)C(=O)NCC(=O)O` [Example 37] ({3Phenanthroyl(9,10-dioxo)}-QQPQG-OH): the figures for the 50% inhibitory concentration (IC50) in data set [1] (setting [6]) and in data set [3] were 2100 nM and 1100 nM, respectively. In data set [2], this compound had a CC50 of more than 30000 nM.
`N=C(N)NCCC[C@H](NC(=O)[C@@H]1CCCN1C(=O)[C@H](CCC(=O)O)NC(=O)[C@H](CCC(=O)O)NC(=O)c1ccc2c(c1)C(=O)C(=O)c1ccccc1-2)C(=O)NCC(=O)O` [Example 53] (Phenanthrenequinone2carbonyl-EEPRG-OH): the IC50 in data set [1] amounted to 3700 nM; in data set [3] (pH 7, read-out: pNPP IC50), 1000 nM. Also, the CC50 in data set [2] is more than 30000 nM.
`N=C(N)NCCC[C@H](NC(=O)c1ccc2c(c1)C(=O)C(=O)c1ccccc1-2)C(=O)N[C@@H](CCCNC(=N)N)C(=O)N1CCC[C@H]1C(=O)N[C@@H](CCC(=O)O)C(=O)NCC(=O)O` [Example 48] (Phenanthrenequinone2carbonyl-RRPEG-OH): the half-maximal inhibitory concentration (IC50) in data set [1] was 5700 nM; in data set [3] (pH 7, read-out: pNPP IC50), 600 nM. In addition, the CC50 in data set [2] was more than 30000 nM.
In the case of `N=C(N)NCCC[C@H](NC(=O)c1ccc2c(c1)C(=O)C(=O)c1ccccc1-2)C(=O)N[C@@H](CCC(=O)O)C(=O)N1CCC[C@H]1C(=O)N[C@@H](CCC(=O)O)C(=O)NCC(=O)O` [Example 45] (Phenanthrenequinone2carbonyl-REPEG-OH), the half-maximal inhibitory concentration (IC50) in data set [1] worked out at 3900 nM; in data set [3] (pH 7, read-out: pNPP IC50), 1400 nM. In data set [2], this compound gave a CC50 of more than 30000 nM.
Taken in the same sequence, the figures for `N=C(N)NCCC[C@H](NC(=O)[C@@H]1CCCN1C(=O)[C@H](CCC(=O)O)NC(=O)CNC(=O)c1ccc2c(c1)C(=O)C(=O)c1ccccc1-2)C(=O)NCC(=O)O` [Example 52] (Phenanthrenequinone2carbonyl-GEPRG-OH) were 3000 nM, 800 nM and more than 30000 nM.
With `CCOc1ccccc1-c1ccc2c(c1)C(=O)C(=O)c1ccccc1-2` [Example 22, 2-(2-Ethoxy-phenyl)-phenanthrene-9,10-dione], the CC50 in data set [4] is more than 30000 nM. Further, the IC50 is 9700 nM in data set [1] (setting [6]), 3600 nM in data set [3] (setting [7]) and 700 nM in data set [5].
For `O=C(COCc1ccccc1)Nc1ccc2c(c1)C(=O)C(=O)c1ccccc1-2` [Example 2, 2-Benzyloxy-N-(9,10-dioxo-9,10-dihydro-phenanthren-2-yl)-acetamide], in that order: 14000 nM, 11000 nM, 500 nM and 1000 nM.
For `Nc1ccc2c(c1)C(=O)C(=O)c1cccc([N+](=O)[O-])c1-2` [Example 84, 2-amino-5-nitro-phenanthrene-9,10-dione], in that order: 4000 nM, 2600 nM, 800 nM and 700 nM.
Turning to `O=C(O)CNC(=O)c1ccc2c(c1)-c1ccccc1C(=O)C2=O` [Example 104, [(9,10-dioxo-9,10-dihydro-phenanthrene-3-carbonyl)-amino]-acetic acid], in data set [4], the CC50 is more than 30000 nM. Besides, the half-inhibitory concentration (IC50) came out at 3400 nM in data set [1] (setting [6]), 500 nM in data set [3] (setting [7]) and 6500 nM in data set [5].
For `COC(=O)CCCC(=O)Nc1ccc2c(c1)C(=O)C(=O)c1ccccc1-2` [Example 70, 4-(9,10-Dioxo-9,10-dihydro-phenanthren-2-ylcarbamoyl)-butyric Acid Methyl Ester], in that order: 3000 nM, 4700 nM, 400 nM and 500 nM.
As for `COC(=O)CCC(=O)Nc1cccc2c1-c1ccccc1C(=O)C2=O` [Example 63, N-(9,10-Dioxo-9,10-dihydro-phenanthren-4-yl)-succinamic Acid Methyl Ester], the CC50 in data set [4] is 8000 nM. Also, the figures for the concentration for half-maximal inhibition (IC50) in data set [1] (setting [6]), in data set [3] (setting [7]) and in data set [5] were 2600 nM, 700 nM and 1200 nM, respectively.
In the case of `COC(=O)CCC(=O)Nc1ccc2c(c1)C(=O)C(=O)c1cccc([N+](=O)[O-])c1-2` [Example 66, N-(5-Nitro-9,10-dioxo-9,10-dihydro-phenanthren-2-yl)-succinamic Acid Methyl Ester], the CC50 in data set [4] is 13000 nM. The IC50 in data set [1] (setting [6]) stood at 1800 nM; in data set [3] (setting [7]), 900 nM; in data set [5] it was 3500 nM.
With `COC(=O)CCCC(=O)Nc1ccc2c(c1)C(=O)C(=O)c1cccc(NC(=O)CCCC(=O)OC)c1-2` [Example 74, 4-[5-(4-Methoxycarbonyl-butyrylamino)-9,10-dioxo-9,10-dihydro-phenanthren-2-ylcarbamoyl]-butyric Acid Methyl Ester], the CC50 in data set [4] was 19000 nM. In addition, the IC50 came out at 3300 nM in data set [1] (setting [6]), 800 nM in data set [3] (setting [7]) and 2600 nM in data set [5].
Regarding `CC(C)CNC(=O)[C@H](CCC(N)=O)NC(=O)CNC(=O)c1ccc2c(c1)-c1ccccc1C(=O)C2=O` [Example 23], in data set [4], the CC50 is more than 30000 nM. In addition, the figures for the IC50 in data set [1] (setting [6]), in data set [3] (setting [7]) and in data set [5] were 3000 nM, 1100 nM and 20000 nM, respectively.
Taken in the same sequence, the figures for `CC(=O)Nc1ccc2c(c1)C(=O)C(=O)c1ccccc1-2` [Example 81, N-(9,10-Dioxo-9,10-dihydro-phenanthren-2-yl)-acetamide] were 900 nM, 2500 nM, 1200 nM and 200 nM.
For `O=C1C(=O)c2cc(NC(=O)c3ccccc3C(F)(F)F)ccc2-c2ccccc21` [Example 8, N-(9,10-Dioxo-9,10-dihydro-phenanthren-2-yl)-2-trifluoromethyl-benzamide], in that order: 12000 nM, 15000 nM, 400 nM and 1400 nM.

These data come from patent publication US20030207812A1, “Cd45 inhibitors” (priority 2002, published 2003).
